{"source": "patent US8618151B2", "about": "“Inhibitors of HCV NS5A” (Presidio Pharmaceuticals, Inc., priority 2008, dated 2013)"}
{"test_system": "HCV genotype 1b replicon", "assay": "HCV replicon assay (1b_Huh-Luc/Neo-ET cell line, luciferase readout)", "type": "cell-based", "details": "Hepatitis C virus, Huh-7, 72 h, read-out: Inhibition of HCV genotype 1b", "procedure,_shortened": "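Luciferase activity (Bright-Glo) after 72 h compound exposure, in triplicate, measured replicon levels in Huh 7-derived 1b_Huh-Luc/Neo-ET cells. EC50 was fitted from percent-of-control values and determined in repeat runs.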", "units": {"EC50": "nM"}}
{"smiles": "COC(=O)N[C@H](C(=O)N1CCC[C@H]1c1ncc(-c2ccc3oc(-c4ccc(-c5cnc([C@@H]6CCCN6C(=O)[C@@H](NC(=O)OC)C6CCOCC6)[nH]5)cc4)nc3c2)[nH]1)C(C)C", "note": "[compound 259]", "EC50": "< 1"}
{"smiles": "COC(=O)N[C@H](C(=O)N1CCC[C@H]1c1ncc(-c2ccc3oc(-c4ccc(-c5cnc([C@@H]6CCCN6C(=O)[C@H](NC(=O)OC)c6ccccc6)[nH]5)cc4)nc3c2)[nH]1)C(C)C", "note": "[compound 260]", "EC50": "< 1"}
{"smiles": "COC(=O)N[C@H](C(=O)N1CCC[C@H]1c1ncc(-c2ccc3ccc(C45CCC(c6cnc([C@@H]7CCCN7C(=O)[C@@H](NC(=O)OC)C(C)C)[nH]6)(CC4)CC5)cc3c2)[nH]1)C(C)C", "note": "[compound 261]", "EC50": "1 to 9.9"}
{"smiles": "COC(=O)N[C@H](C(=O)N1CCC[C@H]1c1nc(-c2ccc3nc(C45CCC(c6cnc([C@@H]7CCCN7C(=O)[C@@H](NC(=O)OC)C(C)C)[nH]6)(CC4)CC5)ccc3c2)c[nH]1)C(C)C", "note": "[compound 262]", "EC50": "< 1"}
{"smiles": "COC(=O)N[C@@H](C(=O)N1CCC[C@H]1c1nc(-c2ccc3nc(C45CCC(c6cnc([C@@H]7CCCN7C(=O)[C@H](NC(=O)OC)c7ccccc7)[nH]6)(CC4)CC5)ccc3c2)c[nH]1)c1ccccc1", "note": "[compound 263]", "EC50": "< 1"}
{"smiles": "CN(C)[C@@H](C(=O)N1CCC[C@H]1c1nc(-c2ccc3nc(C45CCC(c6cnc([C@@H]7CCCN7C(=O)[C@@H](c7ccccc7)N(C)C)[nH]6)(CC4)CC5)ccc3c2)c[nH]1)c1ccccc1", "note": "[compound 264]", "EC50": "1 to 9.9"}
{"smiles": "COC(=O)N[C@H](C(=O)N1CCC[C@H]1c1nc(-c2ccc3nc(C45CCC(c6cnc([C@@H]7CCCN7C(=O)[C@@H](NC(=O)OC)C7CC7)[nH]6)(CC4)CC5)ccc3c2)c[nH]1)C1CC1", "note": "[compound 265]", "EC50": "< 1"}
{"smiles": "COC(=O)N[C@@H](C)C(=O)N1CCC[C@H]1c1nc(-c2ccc3nc(C45CCC(c6cnc([C@@H]7CCCN7C(=O)[C@H](C)NC(=O)OC)[nH]6)(CC4)CC5)ccc3c2)c[nH]1", "note": "[compound 266]", "EC50": "< 1"}
{"smiles": "c1cc2nc(C34CCC(c5cnc([C@@H]6CCCN6)[nH]5)(CC3)CC4)ccc2cc1-c1c[nH]c([C@@H]2CCCN2)n1", "note": "[compound 267]", "EC50": "> 1000"}
{"smiles": "CC(C)(C)OC(=O)N1CCCC1c1ncc(C23CCC(c4ccc5cc(-c6c[nH]c([C@@H]7CCCN7C(=O)OC(C)(C)C)n6)ccc5n4)(CC2)CC3)[nH]1", "note": "(stereo partly drawn) [compound 268]", "EC50": "10 to 999"}
{"smiles": "COC(=O)N[C@H](C(=O)N1CCC[C@H]1c1nc(-c2ccc3c(c2)CCN(c2c(F)cc(-c4cnc([C@@H]5CCCN5C(=O)[C@@H](NC(=O)OC)C(C)C)[nH]4)cc2F)C3)c[nH]1)C(C)C", "note": "[compound 269]", "EC50": "< 1"}
{"smiles": "COC(=O)N[C@@H](C(=O)N1CCC[C@H]1c1nc(-c2ccc3c(c2)CCN(c2c(F)cc(-c4cnc([C@@H]5CCCN5C(=O)[C@H](NC(=O)OC)c5ccccc5)[nH]4)cc2F)C3)c[nH]1)c1ccccc1", "note": "[compound 270]", "EC50": "< 1"}
{"smiles": "COC(=O)N[C@H](C(=O)N1CCC[C@H]1c1nc(-c2ccc3c(c2)CCN(c2c(F)cc(-c4cnc([C@@H]5CCCN5C(=O)[C@@H](NC(=O)OC)C5CC5)[nH]4)cc2F)C3)c[nH]1)C1CC1", "note": "[compound 271]", "EC50": "< 1"}
{"smiles": "COC(=O)N[C@@H](C)C(=O)N1CCC[C@H]1c1nc(-c2ccc3c(c2)CCN(c2c(F)cc(-c4cnc([C@@H]5CCCN5C(=O)[C@H](C)NC(=O)OC)[nH]4)cc2F)C3)c[nH]1", "note": "[compound 272]", "EC50": "< 1"}
{"smiles": "COC(=O)N[C@@H](C)C(=O)N1CCC[C@H]1c1nc(-c2ccc3nc(N4CCC(c5cnc([C@@H]6CCCN6C(=O)[C@H](C)NC(=O)OC)[nH]5)CC4)ccc3c2)c[nH]1", "note": "[compound 273]", "EC50": "1 to 9.9"}
{"smiles": "COC(=O)N[C@H](C(=O)N1CCC[C@H]1c1nc(-c2ccc3nc(N4CCC(c5cnc([C@@H]6CCCN6C(=O)[C@@H](NC(=O)OC)C6CC6)[nH]5)CC4)ccc3c2)c[nH]1)C1CC1", "note": "[compound 274]", "EC50": "1 to 9.9"}
{"smiles": "COC(=O)N[C@H](C(=O)N1CCC[C@H]1c1nc(-c2ccc3nc(N4CCC(c5cnc([C@@H]6CCCN6C(=O)[C@@H](NC(=O)OC)C(C)C)[nH]5)CC4)ccc3c2)c[nH]1)C(C)C", "note": "[compound 275]", "EC50": "< 1"}
{"smiles": "COC(=O)N[C@H](C(=O)N1CCC[C@H]1c1nc2ccc(-c3ccc4cc(-c5ccc6nc([C@@H]7CCCN7C(=O)[C@@H](NC(=O)OC)C(C)C)[nH]c6c5)ccc4c3)cc2[nH]1)C(C)C", "note": "[compound 276]", "EC50": "< 1"}
{"smiles": "COC(=O)N[C@H](C(=O)N1CCC[C@H]1c1nc2ccc(-c3cccc4c(-c5ccc6nc([C@@H]7CCCN7C(=O)[C@@H](NC(=O)OC)C(C)C)[nH]c6c5)cccc34)cc2[nH]1)C(C)C", "note": "[compound 277]", "EC50": "< 1"}
{"smiles": "COC(=O)N[C@@H](C)C(=O)N1CCC[C@H]1c1nc2ccc(-c3ccc4cc(-c5ccc6nc([C@@H]7CCCN7C(=O)[C@H](C)NC(=O)OC)[nH]c6c5)ccc4c3)cc2[nH]1", "note": "[compound 278]", "EC50": "< 1"}
{"smiles": "COC(=O)N[C@H](C(=O)N1CCC[C@H]1c1nc2ccc(-c3ccc4cc(-c5ccc6nc([C@@H]7CCCN7C(=O)[C@@H](NC(=O)OC)C7CCOCC7)[nH]c6c5)ccc4c3)cc2[nH]1)C1CCOCC1", "note": "[compound 279]", "EC50": "< 1"}
{"smiles": "COC(=O)N[C@H](C(=O)N1CCC[C@H]1c1nc2ccc(-c3ccc4nc(-c5ccc6nc([C@@H]7CCCN7C(=O)[C@@H](NC(=O)OC)C(C)C)[nH]c6c5)ccc4c3)cc2[nH]1)C(C)C", "note": "[compound 280]", "EC50": "< 1"}
{"smiles": "COC(=O)N[C@H](C(=O)N1CCC[C@H]1c1nc2ccc(-c3ccc4cc(-c5ccc6nc([C@@H]7CCCN7C(=O)[C@@H](NC(=O)OC)C(C)C)[nH]c6c5)ncc4c3)cc2[nH]1)C(C)C", "note": "[compound 281]", "EC50": "< 1"}
{"smiles": "COC(=O)N[C@H](C(=O)N1CCC[C@H]1c1nc2ccc(-c3ccc4cc(-c5ccc6nc([C@@H]7CCCN7C(=O)[C@@H](NC(=O)OC)C7CCOCC7)[nH]c6c5)ccc4c3)cc2[nH]1)C(C)C", "note": "[compound 282]", "EC50": "< 1"}
{"smiles": "COC(=O)N[C@H](C(=O)N1CCC[C@H]1c1nc2ccc(-c3ccc4cc(-c5ccc6nc([C@@H]7CCCN7C(=O)[C@H](NC(=O)OC)c7ccccc7)[nH]c6c5)ccc4c3)cc2[nH]1)C(C)C", "note": "[compound 283]", "EC50": "< 1"}
{"smiles": "COC(=O)N[C@@H](C(=O)N1CCC[C@H]1c1nc(-c2ccc3nc(C4CCC(c5cnc([C@@H]6CCCN6C(=O)[C@H](NC(=O)OC)c6ccccc6)[nH]5)CC4)ccc3c2)c[nH]1)c1ccccc1", "note": "(stereo partly drawn) [compound 286]", "EC50": "< 1"}
{"smiles": "COC(=O)N[C@H](C(=O)N1CCC[C@H]1c1nc(-c2ccc3c(=O)n(-c4ccc(-c5cnc([C@@H]6CCCN6C(=O)[C@@H](NC(=O)OC)C(C)C)[nH]5)cc4)ccc3c2)c[nH]1)C(C)C", "note": "[compound 287]", "EC50": "< 1"}
{"smiles": "COC(=O)N[C@@H](C(=O)N1CCC[C@H]1c1nc(-c2ccc3c(=O)n(-c4ccc(-c5cnc([C@@H]6CCCN6C(=O)[C@H](NC(=O)OC)c6ccccc6)[nH]5)cc4)ccc3c2)c[nH]1)c1ccccc1", "note": "[compound 288]", "EC50": "< 1"}
{"smiles": "COC(=O)N[C@@H](C(=O)N1CCC[C@H]1c1nc(-c2ccc3c(c2)CCN(c2ccc(-c4cnc([C@@H]5CCCN5C(=O)[C@H](NC(=O)OC)c5ccccc5)[nH]4)cc2)C3=O)c[nH]1)c1ccccc1", "note": "[compound 289]", "EC50": "< 1"}
{"smiles": "COC(=O)N[C@H](C(=O)N1CCC[C@H]1c1ncc(-c2ccc(N3Cc4cc(-c5cnc([C@@H]6CCCN6C(=O)[C@@H](NC(=O)OC)C(C)C)[nH]5)ccc4C3=O)cc2)[nH]1)C(C)C", "note": "[compound 290]", "EC50": "< 1"}
{"smiles": "COC(=O)N[C@H](C(=O)N1CCC[C@H]1c1nc(C2CNc3cc(-c4ccc(-c5cnc([C@@H]6CCCN6C(=O)[C@H](NC(=O)OC6CCOCC6)c6ccccc6)[nH]5)cc4)ccc3C2)c[nH]1)C(C)C", "note": "(stereo partly drawn) [compound 291]", "EC50": "< 1"}
{"smiles": "COC(=O)N[C@H](C(=O)N1CCC[C@H]1c1ncc(-c2ccc3cc(-c4ccc5c(c4)CCc4nc([C@@H]6CCCN6C(=O)[C@@H](NC(=O)OC)C(C)C)[nH]c4-5)ncc3c2)[nH]1)C(C)C", "note": "[compound 292]", "EC50": "< 1"}
{"smiles": "COC(=O)N[C@H](C(=O)N1CCC[C@H]1c1nc2c([nH]1)-c1ccc(-c3cc4ccc(-c5cnc([C@@H]6CCCN6C(=O)[C@@H](NC(=O)OC)C6CCOCC6)[nH]5)cc4cn3)cc1CC2)C(C)C", "note": "[compound 293]", "EC50": "< 1"}
{"smiles": "COC(=O)N[C@H](C(=O)N1CCC[C@H]1c1nc2c([nH]1)-c1ccc(-c3cc4ccc(-c5cnc([C@@H]6CCCN6C(=O)[C@H](NC(=O)OC)c6ccccc6)[nH]5)cc4cn3)cc1CC2)C(C)C", "note": "[compound 294]", "EC50": "< 1"}
{"smiles": "COC(=O)N[C@H](C(=O)N1CCC[C@H]1c1nc2c([nH]1)-c1ccc(-c3cc4ccc(-c5cnc([C@@H]6CCCN6C(=O)[C@H](NC(=O)OC6CCOCC6)c6ccccc6)[nH]5)cc4cn3)cc1CC2)C(C)C", "note": "[compound 295]", "EC50": "< 1"}
{"smiles": "COC(=O)N[C@H](C(=O)N1CCC[C@H]1c1ncc(-c2ccc3nc(-c4ccc5c(ccc6nc([C@@H]7CCCN7C(=O)[C@@H](NC(=O)OC)C(C)C)[nH]c65)c4)ccc3c2)[nH]1)C(C)C", "note": "[compound 296]", "EC50": "< 1"}
{"smiles": "COC(=O)N[C@H](C(=O)N1CCC[C@H]1c1nc2ccc3cc(-c4ccc5cc(-c6cnc([C@@H]7CCCN7C(=O)[C@@H](NC(=O)OC)C7CCOCC7)[nH]6)ccc5n4)ccc3c2[nH]1)C(C)C", "note": "[compound 297]", "EC50": "< 1"}
{"smiles": "COC(=O)N[C@H](C(=O)N1CCC[C@H]1c1nc2ccc3cc(-c4ccc5cc(-c6cnc([C@@H]7CCCN7C(=O)[C@H](NC(=O)OC)c7ccccc7)[nH]6)ccc5n4)ccc3c2[nH]1)C(C)C", "note": "[compound 298]", "EC50": "< 1"}
{"smiles": "COC(=O)N[C@H](C(=O)N1CCC[C@H]1c1nc2ccc3cc(-c4ccc5cc(-c6cnc([C@@H]7CCCN7C(=O)[C@H](NC(=O)OC7CCOCC7)c7ccccc7)[nH]6)ccc5n4)ccc3c2[nH]1)C(C)C", "note": "[compound 299]", "EC50": "< 1"}
